The record followed here is US10617697B2, “Extracts of edible fungi enriched in vitamin D and compostions thereof and their use in the treatment of immune-related disorders” (GAVISH-GALILEE BIO APPLICATIONS LTD, priority 2015, dated 2020).

The subject of the assay is immune-mediated hepatitis harboring mice. As to the kind of experiment: ConA hepatitis in mice, serum liver enzymes after oral pre-treatment. It counts as in vivo, C57BL/6 mice. Conditions: for ALT serum levels: serum 16 hours after ConA. As to the method: Male C57BL/6 mice (11-12 weeks old) were obtained from Harlan Laboratories (Jerusalem, Israel) and maintained in the Animal Core of the Hadassah-Hebrew University Medical School. Mice were administered standard laboratory chow and water ad libitum and kept in a 12 hour light/dark cycle. Animal experiments were carried out according to the guidelines of the Hebrew University-Hadassah Institutional Committee for Care and Use of Laboratory Animals and with the committee's approval.
Concanavalin A (ConA, MP Biomedicals, USA) was dissolved in 50 mM Tris pH 7, 150 mM NaCl, 4 mM CaCl2 and was injected into the tail vein at a dose of 500 μg/mouse (15 mg/kg) in the first experiment, and 400 μg/mouse in the second experiment. Mice were sacrificed 16 hours following ConA injection. Blood and liver tissue were collected for further analysis
Two consecutive experiments were conducted. In the first study, 4 groups of mice were studied (n=5-6 mice/group). Mice in control group were treated 2 hours before ConA injection with DDW (di distilled water). The first treated group received vitamin D oral supplement (1 IU of vitamin D in saline) twice daily for 3 days prior to Concanavalin A-induced immune liver damage. The second treated group was treated orally with crude freeze-dried biomass derived from Lentinula edodes (LE) edible mushrooms (7.5 mg of mushrooms) at the same timing and frequency, while the third treated group was treated with vitamin D enriched LE (7.5 mg of freeze-dried mushrooms containing 1.125 IU of vitamin D). In a subsequent study, four groups of mice (n=5-7 mice/group) were treated by the same protocol detailed above, but the frequency of the oral treatment was increased from two to three times daily.
Serum was obtained from individual mice after sacrifice. The serum aspartate aminotransferase (AST) and alanine aminotransferase (ALT) levels were determined with an automatic analyzer.

In the case of `C=C1CC[C@H](O)C/C1=C/C=C1\CCC[C@]2(C)[C@@H]([C@H](C)/C=C/[C@H](C)C(C)C)CC[C@@H]12` [vitamin D, ergocalciferol], the “proportion of severe liver injury (defined as ALT>2611 U/L)” value (first experiment, oral twice daily for 3 days before ConA) is 60%. The ALT serum levels (first experiment, oral twice daily for 3 days before ConA 500 μg/mouse) came out at 2802 U/L and the ALT serum levels (second study, oral three times daily for 3 days before ConA 400 μg/mouse) is reported as 4040 U/L. Where the note is “second experiment, oral three times daily for 3 days before ConA”, the “proportion of severe liver injury (defined as ALT >2000 U/L)” value turned out to be 100%. The “proportion of severe liver injury by AST (defined as AST>2000 U/L)” value (second experiment, oral three times daily for 3 days before ConA, data not shown) is on record as 100%.
